Results from ChEMBL document CHEMBL1641406, “Discovery of a 1,5-dihydrobenzo[b][1,4]diazepine-2,4-dione series of inhibitors of HIV-1 capsid assembly” (Bioorg Med Chem Lett, 2011).

Columns and labels:
[1] = system: Human immunodeficiency virus 1; test: Antiviral activity against HIV1 infected in human C8166 cells assessed as inhibition of viral replication after 3 days by luciferase assay; format: functional, organism-based; settings: Human immunodeficiency virus 1, C8166, 72 h
[2] = system: Human immunodeficiency virus 1; test: Antiviral activity against HIV1 assessed as inhibition of capsid assembly; format: functional
[3] = system: Human immunodeficiency virus 1; test: Antiviral activity against HIV1 expressing reverse transcriptase K103N/Y181C double mutant infected in human C8166 cells assessed as inhibition of viral replication after 3 days by luciferase assay; format: functional, organism-based; settings: Human immunodeficiency virus 1, C8166, 72 h
[4] = Cytotoxicity against human C8166 cells; format: cell-based
[5] = system: Human immunodeficiency virus 1; test: Antiviral activity against HIV1 expressing wild type reverse transcriptase infected in human C8166 cells assessed as inhibition of viral replication after 3 days by luciferase assay; format: functional, organism-based; settings: Human immunodeficiency virus 1, C8166, 72 h
[6] = system: Rous sarcoma virus; test: Antiviral activity against Rous sarcoma virus assessed as inhibition of capsid assembly; format: functional
[7] = system: Human immunodeficiency virus 1; test: Antiviral activity against HIV1 assessed as inhibition of capsid assembly at 3.8 uM; format: functional
[8] = system: Human immunodeficiency virus 1; test: Antiviral activity against HIV1 assessed as inhibition of capsid assembly at 1.4 uM; format: functional

CN1c2ccc(Cl)cc2N(c2ccccc2)C(=O)c2c1ncn2C
EC50 [1]: 2.9 µM
IC50 [2]: 300 nM

COCCn1cc2c(n1)N(C)c1ccc(Cl)cc1N(c1ccccc1)C2=O
EC50 [1]: 16 µM
IC50 [2]: 1500 nM

COCCN/C=C1\C(=O)N(C)c2cc(Cl)ccc2N(c2ccccc2)C1=O
IC50 [2]: 1600 nM

COCCN/C=C1/C(=O)Nc2cc(Cl)ccc2N(c2ccc(C)cc2)C1=O
IC50 [2]: > 9000 nM

CCn1cc2c(n1)N(C)c1ccc(Cl)cc1N(c1ccccc1)C2=O
IC50 [2]: 2200 nM

CN1c2ccc(Cl)cc2N(c2ccccc2)C(=O)c2c1ncn2Cc1cccc(O)c1
EC50 [1]: 7.3 µM
IC50 [2]: 560 nM

COCCn1cnc2c1C(=O)N(c1ccccc1)c1cc(Cl)ccc1N2C
EC50 [1]: 5.8 µM
IC50 [2]: 360 nM

CN1c2ccc(Cl)cc2N(c2ccccc2)C(=O)c2cn(Cc3ccc(C(=O)O)cc3)nc21
EC50 [1]: 2 µM
IC50 [2]: 600 nM

COCCN/C=C1\C(=O)N(C)c2ccc(C3CC3)cc2N(c2ccccc2)C1=O
IC50 [2]: 1400 nM

C=CCC1C(=O)N(C)c2ccc(C(F)(F)F)cc2N(c2ccccc2)C1=O (configuration not stated)
IC50 [2]: 16000 nM

CCN1C(=O)/C(=C\NCCOC)C(=O)Nc2cc(Cl)ccc21
IC50 [2]: 470 nM

O=C1CC(=O)Nc2cc(Cl)ccc2N1
IC50 [2]: > 46000 nM

COCCN/C=C1\C(=O)N(C)c2cccc(Cl)c2N(c2ccccc2)C1=O
IC50 [2]: 930 nM

COCCN/C=C1\C(=O)N(C)c2c(Cl)cccc2N(c2ccccc2)C1=O
IC50 [2]: 2600 nM

CN1C(=O)C(c2ccccc2)C(=O)N(c2ccccc2)c2cc(C(F)(F)F)ccc21 (configuration not stated)
EC50 [3]: 2700 nM
CC50 [4]: > 20 µM
EC50 [5]: 3000 nM
IC50 [2]: 1200 nM

CN1c2ccc(Cl)cc2N(c2ccccc2)C(=O)c2c1ncn2CCN
EC50 [1]: 4.8 µM
IC50 [2]: 370 nM

COCCNCc1ccc(Cn2cnc3c2C(=O)N(c2ccccc2)c2cc(Cl)ccc2N3C)cc1
EC50 [1]: 0.9 µM
IC50 [2]: 170 nM

COCCN/C=C1/C(=O)Nc2cc(Cl)ccc2N(C)C1=O
IC50 [2]: 590 nM

CN1c2ccc(Cl)cc2N(c2ccccc2)C(=O)c2c1ncn2Cc1ccc(C(=O)O)cc1
EC50 [1]: 6.1 µM
IC50 [2]: 430 nM

COCCN/C=C1\C(=O)N(C)c2ccc(C(F)(F)F)cc2N(c2cccc(Cl)c2)C1=O
IC50 [2]: 7800 nM

COCCN/C=C1\C(=O)Nc2ccc(Cl)cc2NC1=O
IC50 [2]: 1400 nM

CN1c2ccc(Cl)cc2N(c2ccccc2)C(=O)c2cn(C)nc21
EC50 [1]: 7 µM
IC50 [2]: 700 nM

CCCCN/C=C1\C(=O)Nc2ccc(Cl)cc2N(c2ccccc2)C1=O
EC50 [1]: 17 µM
IC50 [6]: > 100 µM
IC50 [2]: 1400 nM

COCCN/C=C1\C(=O)N(C)c2ccc(C(F)(F)F)cc2N(c2ccccc2)C1=O
IC50 [2]: 890 nM

CN1c2ccc(Cl)cc2N(c2ccccc2)C(=O)c2cn(Cc3cccc(O)c3)nc21
EC50 [1]: 4.7 µM
IC50 [2]: 600 nM

CN1C(=O)C(Cc2ccccc2)C(=O)N(c2ccccc2)c2cc(C(F)(F)F)ccc21 (configuration not stated)
EC50 [5]: > 20000 nM
inhibition at 3.8 µM [7]: 40%

O=C1Nc2ccc(Cl)cc2NC(=O)/C1=C/NCc1ccncc1
IC50 [2]: 670 nM

CCn1cnc2c1C(=O)N(c1ccccc1)c1cc(Cl)ccc1N2C
EC50 [1]: 5.2 µM
IC50 [2]: 220 nM

CN(C)CCn1cc2c(n1)N(C)c1ccc(Cl)cc1N(c1ccccc1)C2=O
EC50 [1]: 16 µM
IC50 [2]: 6800 nM

CN1c2ccc(Cl)cc2N(c2ccccc2)C(=O)c2cn(Cc3ccc(CN4CCOCC4)cc3)nc21
EC50 [1]: 0.9 µM
IC50 [2]: 1000 nM

COCCN/C=C1\C(=O)N(C)c2ccc(C(F)(F)F)cc2N(c2ccc(Cl)cc2)C1=O
IC50 [2]: 4000 nM

CN1C(=O)C(CCc2ccccc2)C(=O)N(c2ccccc2)c2cc(C(F)(F)F)ccc21 (configuration not stated)
inhibition at 1.4 µM [8]: 10%

CN1c2ccc(Cl)cc2N(c2ccccc2)C(=O)c2c[nH]nc21
EC50 [1]: 7.8 µM
IC50 [2]: 300 nM

O=C1Nc2ccc(Cl)cc2NC(=O)/C1=C/NCCO
IC50 [2]: 850 nM

COCCN/C=C1\C(=O)N(C)c2ccccc2N(c2cccs2)C1=O
IC50 [2]: 500 nM

CN1c2ccc(Cl)cc2N(c2ccccc2)C(=O)c2[nH]cnc21
EC50 [1]: 3.8 µM
IC50 [2]: 210 nM
